This note sets out measurements from patent US8003324B2, “Modulation of sodium channels by nicotinamide adenine dinucleotide” (U.S. Department of Veterans Affairs, priority 2007, dated 2011).

One data set concerns HEK 293 cell (SCN5A). It counts as cell-based. Conditions: human, 24 h. As to the method:
Human embryonic kidney (HEK) cell line was used for all experiments. A HEK cell line stably expressing a SCN5A-IRES-GFP construct as described in our previous study (Arnold et al., Hearth Rhythm 4:46-53 (2007)) was maintained by antibiotic selection using 0.2 mg/mL Geneticin (G-8168, Sigma-Aldrich). Cells were cultured in Dulbecco's modified Eagle's medium (DMEM; ATCC, Manassas, Va.) with 10% fetal calf serum (ATCC) at 37° C. in 60 mm×15 mm cell culture dishes (Corning Incorporated, Corning, N.Y.) until 70-80% confluence. After reaching confluence, cells were exposed to NADH (Sigma, St. Louis, Mo.) or NAD^+ (Sigma) in culture medium for a total of 12-14 h in triplicate. Experiments were repeated three times. After dissociation with 0.125% trypsin-EDTA, 40 μL of 0.4% Trypan-blue (Sigma, St. Louis, Mo.) was added to each well, and a Trypan-blue exclusion viability assay was performed.
As previously described, we maintained a human embryonic kidney (HEK) cell line that stably expresses the human cardiac Na^+ channel (SCN5A) with antibiotic selection using 0.2 mg/mL geneticin (G-8168, Sigma-Aldrich, St. Louis, Mo.) (23). Expression of SCN5A was linked to green fluorescent protein (GFP) expression by an internal ribosomal entry site (SCN5A-IRES-GFP). Cells were cultured in Dulbecco's modified Eagle's medium (DMEM; ATCC, Manassas, Va.) with 10% fetal calf serum (ATCC) at 37° C. in 60 mm×15 mm cell culture dishes (Corning Incorporated, Corning, N.Y.) until 70-80% confluency. Then, cells were exposed to NADH or NAD^+ (both from Sigma-Aldrich) in culture medium for a total of 24 h. After dissociation with 0.125% trypsin-ethylenediaminetetraacetic acid (EDTA), 40 μL of 0.4% Trypan-blue (Sigma) was added to each well of a 6-well plate, and a Trypan-blue exclusion viability assay was performed. SCN5A cells were tolerant of a wide range of NADH or NAD^+ concentrations from 150 to 300 μM (data not shown). […] All NAD(H) containing solutions were made fresh daily.

For data set [1], the target named is T1, human cardiac Na^+ channel (SCN5A) (Homo sapiens, UniProt Q14524).
T1 construct: expressed in transfected cells
In words: Whole-cell patch clamp Na+ current in HEK cells stably expressing SCN5A. To be noted: for effect on peak Na+ current (in words): versus SCN5A cells. It counts as cell-based. The procedure: HEK cells stably transfected with two different Na^+ channel constructs were used, SCN5A-IRES-GFP and SCN5A-GFP fusion constructs. Cloning and establishment of the cell lines has been delineated previously (11). The HEK 293 cell line stably expressing a SCN5A-IRES-GFP construct was maintained by antibiotic selection using Geneticin (G-8168, Sigma-Aldrich) at a concentration of 0.2 mg/mL was used for patch clamp study. GFP was used as a marker to identify cells expressing the cardiac Na^+ channel. The cells were cultured in 6 well plates with Dulbecco's Modified Eagle's medium (DMEM), 10% fetal bovine serum and 1% pen-strep. Cells were stored in a 5% CO2 incubator at 37° C. for 1-2 days. GPD1-L (the A280V mutant or wild-type) was transiently co-transfected into HEK 293 cells. GPD1-L vectors have been described in London et al.
The effects of external NADH or NAD^+ on sodium current were determined by incubating HEK 293 cells overnight (12-14 h) with NADH/NAD^+ (300 μM) added to the media. The effects of internal NADH or NAD^+ (100 μM) on sodium current were tested by adding the compounds to the pipette solution.
Cells expressing GFP were tested with the whole cell patch-clamp technique in voltage-clamp mode to measure Na^+ current levels. For patch-clamping, HEK cells were plated onto plastic coverslips 2-3 h before the recordings. Glass pipettes were pulled on a Sutter Model P-97 horizontal puller to a resistance of 1-2 MΩ. The glass pipettes were filled with a pipette solution containing (in mmol/L): CsCl 80, Cesium Aspartate 80, EGTA 11, MgCl2 1, CaCl2 1, HEPES 10, Na2ATP 5 and pH 7.4 with CsOH. The bath solution consisted of (in mmol/L): NaCl 130, CsCl 5, CaCl2 2, MgCl2 1.2, HEPES 10 and Glucose 5 (titrated to pH 7.4 with CsOH). Once a seal was established, a small amount of suction was applied to obtain the whole cell configuration. A stepped voltage protocol from −100 to +60 mV from a holding potential of −100 mV was applied to establish the presence of voltage-gated Na^+ channels. Currents obtained during steps to −10 mV were used for comparison in determining the relative reduction in sodium current. Cells were tested at 25° C. In all recordings, 80% of the series resistance was compensated, yielding a maximum voltage error of ˜1 mV. Data were sampled at 10 kHz and later filtered at 5 kHz for analysis. Currents were recorded and analyzed with an Axopatch 200B amplifier, Axon Digidata 1230A A/D converter and pClamp software (Molecular Devices Corporation, Sunnyvale, Calif.).
Using HEK 293 cells stably expressing the SCN5A-IRES-GFP construct, we measured the effect of treatments on the Na^+ current. Cells were cultured in 6-well plates in a […] incubator at 37° C. WT or MT GPD1-L was transiently transfected into HEK 293 cells as described previously in London et al. Other treatments included extracellular NADH or NAD^+ (300 μM) for […] or NADH or NAD^+ (100 μM) in the patch pipette solution. Apocynin (100 μM, Sigma) was added to cells 4-6 h prior to treatment with NADH and continuing for the entire extracellular NADH incubation. Na^+ current levels were measured from GFP-expressing cells using the whole-cell patch clamp technique in voltage-clamp mode at room temperature. HEK cells were dissociated by trypsin-EDTA, and replated onto plastic coverslips 2-3 h before the recordings. Glass pipettes were pulled on a Sutter Model P-97 horizontal puller to a resistance of 1-2 MΩ. The glass pipettes were filled with a pipette solution containing (in mM): CsCl 80, cesium aspartate 80, EGTA 11, MgCl2 1, CaCl2 1, HEPES 10, and Na2ATP 5 (adjusted to pH 7.4 with CsOH). The bath solution consisted of (in mM): NaCl 130, CsCl 5, CaCl2 2, MgCl2 1.2, HEPES 10 and Glucose 5 (adjusted to pH 7.4 with CsOH). Once a seal was established, a small amount of suction was applied to obtain the whole-cell configuration. […]

Data set [2] deals with human SCN5A fused at the C-terminus to GFP (SCN5A-GFP fusion). In words: Na+ channel tracking (confocal microscopy of SCN5A-GFP fusion in HEK cells). It counts as cell-based. As to the method: An SCN5A constructed fused at the C-Terminus to GFP (SCN5A-GFP fusion) was stably transfected in HEK cells and grown on glass bottom 14 mm microwell dishes (MatTek Corporation, Ashland, Mass., USA). A Nikon (Melville, N.Y.) Diaphot 200 inverted microscope with a fluorescent lamp was used to identify cells expressing GFP. Cells expressing GFP were transiently co-transfected with MT GPD1-L or incubated overnight with NADH. Fixation was performed by washing the coverslip three times with DPBS (Dulbecco's Phosphate Buffered Saline 1× of GIBCO) and exposing them to 4% paraformaldehyde in PBS at pH 7.4. […] GFP fluorescence was observed using a 507 nm narrow bandpass filter and a 60× oil 1.4 NA objective. Quantification was done using ImageJ software.
For these experiments, a construct of human SCN5A fused at the C-terminus to GFP (SCN5A-GFP fusion) was stably transfected in HEK cells and grown on the glass bottom of 14-mm microwell dishes (MatTek Corporation, Ashland, Mass., USA). […] For imaging Na^+ channels, GFP was excited at 488 nm with an argon ion 30 mW water-cooled laser, and GFP fluorescence was observed using a 507 nm narrow bandpass filter and a 60× oil 1.4 NA objective. Quantification was done using ImageJ software.

The next data set relates to SCN5A^+/− mouse heart. In words: Ventricular arrhythmogenesis in Langendorff-perfused SCN5A+/- mouse heart (MAP recording, PES). The procedure: Hearts from mice genetically modified to ablate one allele of SCN5A were isolated and Langendorff-perfused (3 ml/min at 37° C.) with Krebs-Henseleit solution (in mM: 119 NaCl, 25 NaHCO3, 4 KCl, 1.2 KH2PO4, 1 MgCl2, 1.8 CaCl2, 10 glucose and 2 sodium pyruvate) and allowed to beat intrinsically for 10 min. Monophasic action potentials (MAPs) were recorded using a MAP electrode (Harvard Apparatus, UK) placed on left ventricular epicardial surface. MAP signals were amplified, band-pass filtered (0.5 Hz to 1 kHz: Neurolog NL900D), digitized (1401, Cambridge Electronic Design, Cambridge, UK) and acquired using Spike 2.5 (Cambridge Electronic Design) at a 5 KHz sampling rate. A custom made, paired-platinum electrode was placed on right ventricle and used to deliver 2 ms ([…], twice the threshold) stimuli (GRASS S48 stimulator) to pace the heart at different intervals. The standard pacing protocol consisted of 8 Hz stimuli (basic cycle length, BCL 125 ms) and was delivered for 20 min to measure MAPs. This was followed by programmed electrically stimulation (PES) consisting of trains of eight paced stimuli at 125 ms BCL (S1) followed by an extra stimulus (S2). […] PES was repeated three times before and three times after the drug application in each heart. NAD^+ was perfused for 20 min to assess its anti-arrhythmic effect. Selected recordings were imported to Microsoft Excel for further statistical analysis. Average APD90 (action potential duration) was calculated by averaging 240 MAPs recorded at three different locations on each heart (80 MAPs at each location). These studies were approved by the Institutional Review Board.

[3] abbreviates: 100 μM intracellular (pipette solution), at 10 min.
The mark [4] stands for this setting: 300 μM extracellular, overnight incubation.

Where “and” joins values, the source holds several entries; their conditions need not be identical. Equal entries are not always repeated. Entries after “also recorded” stand apart in the source; their conditions may differ.

T1 sequence (Q14524 whole entry): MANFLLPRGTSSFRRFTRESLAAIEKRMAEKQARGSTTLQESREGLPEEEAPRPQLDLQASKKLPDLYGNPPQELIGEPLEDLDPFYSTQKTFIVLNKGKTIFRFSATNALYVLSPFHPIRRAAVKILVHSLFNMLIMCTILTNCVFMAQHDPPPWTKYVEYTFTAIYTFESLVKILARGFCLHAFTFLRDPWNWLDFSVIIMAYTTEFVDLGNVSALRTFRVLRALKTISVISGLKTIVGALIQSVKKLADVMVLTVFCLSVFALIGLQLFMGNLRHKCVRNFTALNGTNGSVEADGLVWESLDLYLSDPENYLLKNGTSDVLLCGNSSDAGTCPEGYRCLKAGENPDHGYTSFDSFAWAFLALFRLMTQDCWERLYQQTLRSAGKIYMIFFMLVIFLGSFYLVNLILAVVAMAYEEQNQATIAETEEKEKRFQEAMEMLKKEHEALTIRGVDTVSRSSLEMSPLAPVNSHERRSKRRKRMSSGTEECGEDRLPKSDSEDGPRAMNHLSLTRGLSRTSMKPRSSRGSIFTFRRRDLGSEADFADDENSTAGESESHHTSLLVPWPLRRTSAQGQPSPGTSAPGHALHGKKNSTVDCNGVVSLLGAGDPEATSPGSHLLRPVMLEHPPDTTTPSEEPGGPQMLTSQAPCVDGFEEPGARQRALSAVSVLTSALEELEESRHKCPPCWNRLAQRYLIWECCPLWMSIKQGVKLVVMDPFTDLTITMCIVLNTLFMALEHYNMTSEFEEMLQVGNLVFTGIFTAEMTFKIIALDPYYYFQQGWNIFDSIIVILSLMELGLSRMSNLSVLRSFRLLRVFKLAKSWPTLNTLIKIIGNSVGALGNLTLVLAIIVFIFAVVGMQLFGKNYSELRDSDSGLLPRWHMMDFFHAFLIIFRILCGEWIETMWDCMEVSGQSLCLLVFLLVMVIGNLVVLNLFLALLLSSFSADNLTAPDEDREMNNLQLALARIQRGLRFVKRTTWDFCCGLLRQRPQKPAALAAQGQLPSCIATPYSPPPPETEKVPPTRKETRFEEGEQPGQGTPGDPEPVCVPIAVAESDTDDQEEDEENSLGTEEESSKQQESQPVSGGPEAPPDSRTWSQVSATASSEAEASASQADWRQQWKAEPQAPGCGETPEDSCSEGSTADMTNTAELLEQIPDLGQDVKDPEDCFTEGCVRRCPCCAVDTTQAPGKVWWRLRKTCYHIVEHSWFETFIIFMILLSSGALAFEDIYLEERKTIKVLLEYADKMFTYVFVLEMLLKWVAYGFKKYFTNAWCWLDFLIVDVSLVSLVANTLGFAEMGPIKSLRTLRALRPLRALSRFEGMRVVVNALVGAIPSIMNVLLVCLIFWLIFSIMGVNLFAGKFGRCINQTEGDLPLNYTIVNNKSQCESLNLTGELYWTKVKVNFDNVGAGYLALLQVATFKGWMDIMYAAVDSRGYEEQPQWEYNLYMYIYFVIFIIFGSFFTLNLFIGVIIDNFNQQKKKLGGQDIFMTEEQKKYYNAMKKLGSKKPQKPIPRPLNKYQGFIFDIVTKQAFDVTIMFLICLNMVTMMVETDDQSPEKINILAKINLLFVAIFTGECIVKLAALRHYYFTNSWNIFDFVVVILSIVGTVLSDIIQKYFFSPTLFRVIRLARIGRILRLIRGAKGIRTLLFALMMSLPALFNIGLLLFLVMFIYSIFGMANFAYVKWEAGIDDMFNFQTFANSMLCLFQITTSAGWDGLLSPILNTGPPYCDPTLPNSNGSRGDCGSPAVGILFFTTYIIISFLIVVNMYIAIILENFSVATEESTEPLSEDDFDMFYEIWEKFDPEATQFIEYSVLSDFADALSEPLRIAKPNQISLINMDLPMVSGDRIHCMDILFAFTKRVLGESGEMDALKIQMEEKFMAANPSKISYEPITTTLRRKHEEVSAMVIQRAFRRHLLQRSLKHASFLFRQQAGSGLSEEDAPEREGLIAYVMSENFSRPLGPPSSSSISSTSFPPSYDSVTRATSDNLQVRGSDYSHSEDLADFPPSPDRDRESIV

Regarding `NC(=O)C1=CN([C@@H]2O[C@H](COP(=O)(O)OP(=O)(O)OC[C@H]3O[C@@H](n4cnc5c(N)ncnc54)[C@H](O)[C@@H]3O)[C@@H](O)[C@H]2O)C=CC1` [NADH, nicotinamide adenine dinucleotide], in the data set with HEK 293 cell (SCN5A), the “tolerated concentration range (cell viability)” value lay in the range of 150 to 300 µM and the “tolerated concentration range (dose-dependent cell viability)” value lay within 150 to 300 µmol/L. For the same compound, the “decrease in Na+ current (peak current)” value in data set [1] (setting [3]) is 51% and 55.5%. Besides, the “decrease in whole cell peak conductance” value in data set [1] (300 μM extracellular, overnight) was found to be 71.4%. Besides, the “decrease in peak Na+ current” value in data set [1] (setting [4]) was 65.7±6.6% and 74.9%. The “reduction in membrane-associated, GFP-tagged Na+ channels” value in data set [2] (overnight incubation with NADH, fluorescent microscopy) was determined as 6.1 fold.

As to `NC(=O)c1ccc[n+]([C@H]2O[C@@H](COP(=O)(O)OP(=O)(O)OC[C@@H]3O[C@H](n4cnc5c(N)ncnc54)[C@H](O)C3O)C(O)[C@H]2O)c1` (stereo partly drawn) [NAD^+, nicotinamide adenine dinucleotide], the “tolerated concentration range (cell viability)” value with HEK 293 cell (SCN5A) was in the range of 150 to 300 µM. Moreover, in data set [1] (100 μM in internal (pipette) solution, versus SCN5A), the “effect on Na+ current density (in words)” value is recorded as “significantly higher”. Besides, in data set [1] (setting [3]), the “increase in Na+ current (peak current)” value was 77% and 66.6%. For the same compound, the “effect on peak Na+ current (in words)” value in data set [1] (setting [4]) is listed as “increase in peak current; also recorded: increased sodium current”; in data set [1] (300 μM extracellular, overnight incubation, listed as NAD+), “largely restored peak current”. In addition, the “increase in whole cell peak conductance” value in data set [1] (300 μM extracellular, overnight, n=9) came out at 30.3%. For the same compound, the “effect on the Na+ current reduction caused by MT GPD1-L (A280V)” value in data set [1] (SCN5A cells co-transfected with MT GPD1-L, external NAD+ 300 μM) is recorded as “prevented the loss of peak current; also recorded: increased Na^+ current at all activation potential; also recorded: reverses the decrease in peak current; also recorded: largely prevented; also recorded: prevent the reduction in Na^+ current”. The “shift of activation curve” value in data set [1] (WT SCN5A cells, versus SCN5A cell) is reported as “shift more positive”. In addition, in data set [1] (versus SCN5A cell), the “shift of inactivation curve” value is listed as “more positive”. In addition, the “effect on Na+ channel protein (GFP fluorescence, in words)” value in data set [2] (300 μM overnight, versus control SCN5A-GFP cells) was “increased GFP fluorescence; also recorded: increases Na^+ channel protein”. Further, the “hearts in which PES failed to induce VT” value in the data set on SCN5A^+/− mouse heart (SCN5A+/- hearts after 20 min perfusion with 100 μM, VT in 6 out of 6 before) is reported as 5 out of 6. The “reversibility: hearts with PES-induced VTs after removal” value in the data set on SCN5A^+/− mouse heart (SCN5A+/- hearts, NAD+ removed) is 4 out of 6 and reversible. Further, the “MAP duration or morphology” value with SCN5A^+/− mouse heart (perfusion for 20 min with 100 μM) is “no significant change”. For the same compound, the APD90 in the data set on SCN5A^+/− mouse heart (six SCN5A+/- hearts, 20 min perfusion with 100 μM, BCL 125 ms) is 27.9 ± 1.9 ms.

On to `COc1cc(C(C)=O)ccc1O` [apocynin, reference compound], for which the “effect on the NADH-induced reduction of Na+ current” value in data set [1] (apocynin 100 μM added 4-6 h before and during extracellular NADH incubation) is on record as “abolished the effect of NADH on Na^+ current; also recorded: inhibited the effect of NADH on Na^+ currents”.
